Literature values, collected in PMC8583936, “Machine Learning Assisted Approach for Finding Novel High Activity Agonists of Human Ectopic Olfactory Receptors” (International Journal of Molecular Sciences, 2021).
Read-outs that look alike come from different tables or passages of the source.

How the values were obtained:
[1] = target: T1, OR1A1 (Homo sapiens, UniProt Q9P1Q5); details: cited from earlier work
T1 sequence (Q9P1Q5 1-309): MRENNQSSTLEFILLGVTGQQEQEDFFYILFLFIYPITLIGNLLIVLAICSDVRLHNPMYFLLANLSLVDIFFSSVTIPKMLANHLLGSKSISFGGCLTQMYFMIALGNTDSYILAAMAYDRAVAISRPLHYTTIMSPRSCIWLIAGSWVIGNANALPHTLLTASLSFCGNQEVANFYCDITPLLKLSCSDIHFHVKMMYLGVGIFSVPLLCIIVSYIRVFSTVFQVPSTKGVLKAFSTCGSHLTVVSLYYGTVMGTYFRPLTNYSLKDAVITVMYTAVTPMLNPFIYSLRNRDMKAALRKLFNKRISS

[2] = target: T2, OR2W1 (Homo sapiens, UniProt Q9Y3N9); details: cited from earlier work
T2 sequence (Q9Y3N9 1-320): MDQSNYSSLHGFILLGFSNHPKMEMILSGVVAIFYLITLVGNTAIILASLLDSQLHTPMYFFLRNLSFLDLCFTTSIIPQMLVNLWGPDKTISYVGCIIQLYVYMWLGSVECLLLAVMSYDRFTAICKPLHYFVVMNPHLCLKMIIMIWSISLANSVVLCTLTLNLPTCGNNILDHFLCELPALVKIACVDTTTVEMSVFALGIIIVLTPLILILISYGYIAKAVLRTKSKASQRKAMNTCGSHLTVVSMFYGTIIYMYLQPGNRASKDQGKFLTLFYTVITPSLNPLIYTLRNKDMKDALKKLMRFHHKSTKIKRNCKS

[3] = Table S1, ref Supplement references [1]-[9] as printed after each odorant name
[4] = Table S2, ref Supplement references [2]-[12] as printed after each odorant name

| Compound | Class (agonist / non-agonist / conflicting info.) for OR1A1 [1] | Class (agonist / non-agonist / antagonist / conflicting info.) for OR2W1 [2] | Class (agonist / non-agonist / conflicting info.) for OR1A1 [1, 3] | Class (agonist / non-agonist / antagonist / conflicting info.) for OR2W1 [2, 4] | Class (agonist / non-agonist / antagonist / conflicting info.) for OR2W1 ([2]; Table S2, ref Supplement references [2]-[12] as printed after each odorant name, listed as Capric acid) |
| --- | --- | --- | --- | --- | --- |
| O=c1cc(O)c2ccccc2o1 [4-hydroxycoumarin] | Non-agonist | Non-agonist |  |  |  |
| CCCCCCCC1CCCC(=O)O1 (stereo not shown) [Delta-dodecalactone] |  |  | Non-agonist | Non-agonist |  |
| CCC1(O)C2(C)CCC(C2)C1(C)C (stereo not shown) [2-ethylfenchol] |  | Conflicting info. | Conflicting info. |  |  |
| COC(=O)C(C)C [Methyl isobutyrate] |  |  | Non-agonist | Non-agonist |  |
| CCCCCCC/C=C/C=O [2-decenal, (2e)-] |  |  | Non-agonist | Non-agonist |  |
| O=CCc1ccccc1 [Phenyl acetaldehyde] |  |  | Non-agonist | Non-agonist |  |
| CCCCOC(C)=O [Butyl acetate] |  |  | Non-agonist | Non-agonist |  |
| CCC(C(=O)O)c1ccccc1 (single isomer, unassigned; (-)) [(-)-2-Phenylbutyric acid] |  |  | Non-agonist | Non-agonist |  |
| CCCO [1-propanol] |  |  | Non-agonist | Non-agonist |  |
| CC/C=C\CCC=O [4-heptenal, (4z)-] |  |  | Non-agonist | Non-agonist |  |
| (+)-alpha-Pinene |  |  | Non-agonist | Non-agonist |  |
| CCCCCC(C)O (stereo not shown) [2-heptanol] |  |  | Non-agonist | Agonist |  |
| CC(C)[C@@H]1CC[C@@H](C)CC1=O [Menthone] |  |  | Conflicting info. | Non-agonist |  |
| C=CC(C)(O)CCC=C(C)C (stereo not shown) [Linalool] |  |  | Conflicting info. | Non-agonist |  |
| CCCCOC(=O)c1ccccc1N [Butyl anthranilate] | Agonist | Agonist |  |  |  |
| COC(=O)C=Cc1ccccc1 [Methyl cinnamate] |  |  | Non-agonist | Agonist |  |
| CSSc1ccoc1C [Methyl 2-methyl-3-furyl disulfide] |  |  | Non-agonist | Non-agonist |  |
| CCCCCCCCCC(=O)O [Decanoic acid / capric acid] |  |  | Non-agonist |  | Conflicting info. |
| CC(=O)OCCC(C)C [Isoamyl acetate] |  |  | Non-agonist | Agonist |  |
| CCCCC(=O)O [Valeric acid] |  |  | Non-agonist | Non-agonist |  |
| CC1=CCC2CC1C2(C)C (single isomer, unassigned; (-)) [(-)-alpha-Pinene] |  |  | Non-agonist | Non-agonist |  |
| CC/C=C\CC/C=C/CO [(2E,6Z)-Nona-2,6-dien-1-ol] |  |  | Non-agonist | Non-agonist |  |
| CCC(C(=O)O)c1ccccc1 (single isomer, unassigned; (+)) [(+)-2-Phenylbutyric acid] |  |  | Non-agonist | Non-agonist |  |
| COc1ccc2ccc(=O)oc2c1 [7-methoxycoumarin] |  |  | Non-agonist | Non-agonist |  |

| Compound | Class (agonist / non-agonist / conflicting info.) for OR1A1 [1] | Class (agonist / non-agonist / antagonist / conflicting info.) for OR2W1 [2] | Class (agonist / non-agonist / conflicting info.) for OR1A1 [1, 3] | Class (agonist / non-agonist / antagonist / conflicting info.) for OR2W1 [2, 4] | Class (agonist / non-agonist / antagonist / conflicting info.) for OR2W1 ([2]; Table S2, ref Supplement references [2]-[12] as printed after each odorant name, listed as Capric acid) |
| --- | --- | --- | --- | --- | --- |
| CCCCCCCCC(=O)O [Nonanoic acid] | Conflicting info. | Agonist |  |  |  |
| Cc1ccc(O)cc1 [4-methylphenol] |  |  | Non-agonist | Non-agonist |  |
| CC(C)CC=O [Isovaleraldehyde] |  |  | Non-agonist | Non-agonist |  |
| COC(=O)c1ccccc1N [Methyl anthranilate] | Non-agonist | Agonist |  |  |  |
| CC(C)CN [Isobutyl amine] |  |  | Conflicting info. | Antagonist |  |
| CC(C)c1ccc(C=O)cc1 [Cuminaldehyde] |  |  | Non-agonist | Non-agonist |  |
| CC(=O)OCC=C(C)C [Prenyl acetate] |  |  | Non-agonist | Agonist |  |
| CC1(C)[C@H]2CC[C@]1(C)C(=O)C2 [(-)-Camphor] |  |  | Non-agonist | Non-agonist |  |
| OCC=Cc1ccccc1 [Cinnamyl alcohol] |  |  | Non-agonist | Non-agonist |  |
| COc1ccc(C)cc1O [2-Methoxy-5-methylphenol] |  |  | Non-agonist | Non-agonist |  |
| CC(C)CCCCCCCCCCC=O [12-methyltridecanal] |  |  | Non-agonist | Non-agonist |  |
| Cc1cccc(C)c1O [2,6-dimethylphenol] | Non-agonist | Non-agonist |  |  |  |
| CCCCCCCC(OC)OC [1,1-dimethoxy-octane] |  |  | Non-agonist | Agonist |  |
| CCCC1CCCC(=O)O1 (stereo not shown) [6-Propyloxan-2-one] |  |  | Non-agonist | Non-agonist |  |
| C=CC(=C)CCC=C(C)C [Myrcene] |  |  | Non-agonist | Non-agonist |  |
| CCCCCCCCCS [Nonanethiol] |  |  | Agonist | Agonist |  |
| CCCCCCCCCC(=O)O [Decanoic acid] |  |  |  | Agonist |  |
| CCCCCCCS [Heptane-1-thiol] |  |  |  | Agonist |  |
| CCCCCCS [Hexane-1-thiol] |  | Agonist |  |  |  |
| CCCCCS [Pentane-1-thiol] |  |  |  | Agonist |  |
| CCCCCC(=O)CC(C)=O [2,4-nonanedione] |  |  |  | Agonist |  |
| CC(=O)CC(=O)CC(C)C [6-Methyl-2,4-heptanedione] |  |  |  | Agonist |  |
| CC(C)=CCC[C@@H](C)CC=O [Citronellal] |  | Agonist |  |  |  |
| CCCCC(=O)CC(C)=O [2,4-octanedione] |  |  |  | Agonist |  |
